According to US20220081435A1, “ANDROGEN RECEPTOR PROTEIN DEGRADERS” (THE REGENTS OF THE UNIVERSITY OF MICHIGAN, priority 2019, published 2022):

Assays:
[1] = molecular target: T1, AR protein in VCaP xenograft tumor tissue (Homo sapiens, UniProt P10275); experiment: Pharmacodynamics in VCaP xenograft tumor tissue in mice (immunoblotting); type: in vivo; settings: SCID mice, single dose 50 mg/kg IP
T1 construct: resected control and treated VCaP xenograft tumor tissues were ground into powder in liquid nitrogen and lysed; from tissue; host or cells: VCaP xenograft tumor tissue from SCID mice
T1 sequence (P10275 1-920): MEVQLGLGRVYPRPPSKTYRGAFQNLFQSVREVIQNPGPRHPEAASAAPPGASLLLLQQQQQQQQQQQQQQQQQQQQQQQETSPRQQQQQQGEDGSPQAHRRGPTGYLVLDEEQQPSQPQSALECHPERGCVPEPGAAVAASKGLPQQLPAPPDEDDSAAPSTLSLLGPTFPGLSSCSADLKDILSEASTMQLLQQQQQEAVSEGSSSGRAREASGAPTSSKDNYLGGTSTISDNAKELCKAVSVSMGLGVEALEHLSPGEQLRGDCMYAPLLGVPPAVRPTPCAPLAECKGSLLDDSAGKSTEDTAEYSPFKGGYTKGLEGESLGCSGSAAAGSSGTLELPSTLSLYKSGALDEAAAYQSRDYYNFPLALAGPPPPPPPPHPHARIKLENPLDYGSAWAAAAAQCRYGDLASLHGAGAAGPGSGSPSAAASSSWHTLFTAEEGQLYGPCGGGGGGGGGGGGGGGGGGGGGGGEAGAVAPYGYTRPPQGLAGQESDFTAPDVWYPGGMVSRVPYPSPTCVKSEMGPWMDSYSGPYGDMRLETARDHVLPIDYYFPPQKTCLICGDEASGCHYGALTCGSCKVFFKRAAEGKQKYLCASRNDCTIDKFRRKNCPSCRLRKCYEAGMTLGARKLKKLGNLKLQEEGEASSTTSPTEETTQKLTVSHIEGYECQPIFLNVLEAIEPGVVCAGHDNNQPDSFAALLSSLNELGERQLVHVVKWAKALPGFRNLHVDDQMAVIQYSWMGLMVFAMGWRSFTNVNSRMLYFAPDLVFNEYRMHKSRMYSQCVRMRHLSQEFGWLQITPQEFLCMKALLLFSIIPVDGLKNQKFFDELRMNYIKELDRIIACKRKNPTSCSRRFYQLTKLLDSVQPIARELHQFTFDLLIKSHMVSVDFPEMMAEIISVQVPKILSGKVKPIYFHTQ
Procedure: FIG. 9 is an image of an immunoblotting analysis of a pharmacodynamics (PD) study of AR degrader 34 (ARD-69) in VCaP tumor tissue in mice. SCID mice bearing xenograft VCaP tumors were treated with a single dose of 34 (ARD-69) (IP, 50 mg/kg). Tumor tissues were harvested at the indicated time points for immunoblotting.
Pharmacodynamics Studies in the VCaP Xenograft Models in Mice. All animal experiments were performed under the guidelines of the University of Michigan Committee for Use and Care of Animals and using an approved animal protocol (PI, Shaomeng Wang). Xenograft tumors were established by injecting 5×10^6 VCaP cells in 50% Matrigel subcutaneously on the dorsal side of severe combined immunodeficient (SCID) mice, obtained from Charles River, one tumor per mouse. When tumors reached ˜100 mm^3, mice were randomly assigned to treatment and vehicle control groups. Animals were monitored daily for any signs of toxicity and weighed 2-3 times per week during the treatment period and at least weekly after the treatment ended. For pharmacodynamics analysis, resected control and treated VCaP xenograft tumor tissues were ground into powder in liquid nitrogen and lysed in CST lysis buffer with halt proteinase inhibitors. Twenty micrograms of whole tumor clarified lysates were separated on 4-20% or 4-12% Novex gels. Western blots were performed as detailed in the previous section.

VCaP cells = experiment: Cell growth inhibition in VCaP cells (WST-8 assay); type: cell-based
Procedure: VCaP were treated with different compounds in charcoal stripped medium in the presence of 0.1 nM of AR agonist R1881 for 7 days. Cell viability was determined by a WST-8 assay.
(§1) Cell lines and Cell Culture: All the LNCaP, VCaP and 22RV1 cells used were purchased from American Type Culture Collection (ATCC). LNCaP and 22RV1 cells were grown in RPMI 1640 (Invitrogen), VCaP cells were grown in DMEM with Glutamax (Invitrogen). All of the cells were supplemented with 10% fetal bovine serum (Invitrogen) at 37° C. in a humidified 5% CO2 incubator.

AR protein = AR protein degradation in 22RV1 cells (Western blotting); type: cell-based
Procedure: as §1
Western Blotting. Treated cells were lysed by RIPA buffer supplemented with protease and phosphatase inhibitors. The cell lysates were separated by 4-12% SDS-PAGE gels and blotted into PVDF membranes. Software ImageJ was used to quantify the percentage of AR degradation. The net protein bands and loading controls are calculated by deducting the background from the inverted band value. The final relative quantification values are the ratio of net band to net loading control.

[2] = tested on: AR-regulated gene expression (PSA, TMPRSS2, FKBP5, ERG); experiment: Suppression of AR-regulated gene expression in VCaP cells (qRT-PCR); type: cell-based
Procedure: Quantitative Real-Time Polymerase Chain Reaction (qRT-PCR). Real-time PCR was performed using QuantStudio 7 Flex Real-Time PCR System as described previously.^43,44 RNA was purified using the Qiagen RNase-Free DNase set, then after quantification, the extracted RNA was converted to cDNA using High Capacity RNA-to-cDNA Kit from Applied Biosystems (Thermo Fisher Scientific). The levels of AR, TMPRSS2, FKBP5, PSA(KLK3) and GAPDH were quantified using TaqMan Fast Advanced Master Mix from Applied Biosystems. The level of gene expression was evaluated using comparative CT method, which compares the CT value to GAPDH (ACT) and then to vehicle control (ΔΔCT).

22RV1 cells = experiment: Cell growth inhibition in 22RV1 cells (WST-8 assay); type: cell-based
Procedure: 22RV1 cells were treated with a regular culture medium for 7 days. Cell viability was determined by a WST-8 assay.
Cell lines and Cell Culture: All the LNCaP, VCaP and 22RV1 cells used were purchased from American Type Culture Collection (ATCC). […] All of the cells were supplemented with 10% fetal bovine serum (Invitrogen) at 37° C. in a humidified 5% CO2 incubator.

`Cc1ncsc1-c1ccc([C@H](CC(=O)N2CCC(N3CCC(C#Cc4ccc(C(=O)NC5C(C)(C)C(Oc6ccc(C#N)c(Cl)c6)C5(C)C)cc4)CC3)CC2)NC(=O)[C@@H]2C[C@@H](O)CN2C(=O)[C@@H](NC(=O)C2(F)CC2)C(C)(C)C)cc1` (stereo partly drawn) [Compound 34, (2S,4R)—N—((S)-3-(4-((4-(((1r,3r)-3-(3-Chloro-4-cyanophenoxy)-2,2,4,4-tetramethyl-cyclobutyl)carbamoyl)phenyl)ethynyl)-[1,4′-bipiperidin]-1′-yl)-1-(4-(4-methylthiazol-5-yl)phenyl)-3-oxopropyl)-1-((S)-2-(1-fluorocyclopropane-1-carboxamido)-3,3-dimethylbutanoyl)-4-hydroxypyrrolidine-2-carboxamide] was tested, and the “Persistence of AR protein reduction” value [1] was “at least 48 h”, the “Persistence of PSA protein reduction” value [1] was 24 to 48 h and the “Level of PSA protein in tumor tissue” value ([1]; at the 3 h time-point) was “effectively reduced”. For the same compound, the “Level of AR protein in tumor tissue” value ([1]; starting at 3 h) was “effectively reduced”, the “Potency relative to enzalutamide (4) and compound 6 in cell growth inhibition” value (VCaP cells) was over 100 times and the IC50 (VCaP cells; charcoal stripped medium, 0.1 nM R1881, 7 days) was 0.34 nM. For the same compound, the AR degradation (AR protein; 22RV1, 1 μM, 24 h treatment) was “near complete degradation”, the DC50 (AR protein; 22RV1, 24 h treatment, read-out: DC50 (drug concentration that results in 50% protein degradation)) was 10.4 nM and the “Potency relative to AR antagonist 6 in suppressing AR-regulated gene transcription” value [2] was over 100 times. For the same compound, the “Reduction of mRNA level of both PSA and TMPRSS2 genes” value ([2]; 10 nM) was over 50%, the ERG gene expression ([2]; dose-dependent) was “suppresses” and the “Expression of PSA, TMPRSS2 and FKBP5 genes” value ([2]; dose-dependent, data not shown) was “effectively suppressed”. The “Potency relative to enzalutamide (4) and compound 6 in cell growth inhibition” value (22RV1 cells; 22RV1) was over 100 times and the IC50 (22RV1 cells; 22RV1, regular culture medium, 7 days) was 183 nM.
